{"source": "the supplement of paper PMC10307832", "assay_in_all_cases": "relative viability (nuclei count vs DMSO), 5 days (fraction); higher = more cells survive", "key": {"NCI-H1563": {"tested_on": "NCI-H1563", "in_short": "(§1)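 Lung cancer cell lines were pin-tool dosed in 1536-well plates on the day after seeding, with either a lone drug or a fixed anchor-drug dose plus five library-drug doses (not always all listed) in √10 steps. Nuclei were counted on 4× images after 5 days. Relative viability is the ratio of treated-well to vehicle-well nuclei counts, with each value a median of duplicate plates.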"}, "NCI-H1299": {"tested_on": "NCI-H1299", "in_short": "as §1"}, "A549": {"tested_on": "A549", "in_short": "as §1"}, "Calu-6": {"tested_on": "Calu-6", "in_short": "as §1"}, "NCI-H1703": {"tested_on": "NCI-H1703", "in_short": "as §1"}, "EBC-1": {"tested_on": "EBC-1", "in_short": "as §1"}, "IA-LM": {"tested_on": "IA-LM", "in_short": "as §1"}}, "data": [{"smiles": "O=C(O)CCCCC(CCSCc1ccccc1)SCc1ccccc1", "note": "(stereo not given) [CPI-613] + C[C@@H](Oc1cc(-c2cnn(C3CCNCC3)c2)cnc1N)c1c(Cl)ccc(F)c1Cl [Crizotinib] (partner 1 µM)", "values": [{"measurement": "relative viability", "setting": "NCI-H1563; first compound 5 µM", "value": 0.834}, {"measurement": "relative viability", "setting": "NCI-H1563; first compound 15.81 µM", "value": 0.877}, {"measurement": "relative viability", "setting": "NCI-H1563; first compound 50 µM", "value": 0.857}, {"measurement": "relative viability", "setting": "NCI-H1563; first compound 158.11 µM", "value": 0.477}, {"measurement": "relative viability", "setting": "NCI-H1563; first compound 500 µM", "value": 0.211}, {"measurement": "relative viability", "setting": "NCI-H1299; first compound 5 µM", "value": 0.926}, {"measurement": "relative viability", "setting": "NCI-H1299; first compound 15.81 µM", "value": 0.942}, {"measurement": "relative viability", "setting": "NCI-H1299; first compound 50 µM", "value": 0.944}, {"measurement": "relative viability", "setting": "NCI-H1299; first compound 158.11 µM", "value": 0.889}, {"measurement": "relative viability", "setting": "NCI-H1299; first compound 500 µM", "value": 0.861}, {"measurement": "relative viability", "setting": "A549; first compound 5 µM", "value": 0.738}, {"measurement": "relative viability", "setting": "A549; first compound 15.81 µM", "value": 0.595}, {"measurement": "relative viability", "setting": "A549; first compound 50 µM", "value": 0.526}, {"measurement": "relative viability", "setting": "A549; first compound 158.11 µM", "value": 0.191}, {"measurement": "relative viability", "setting": "A549; first compound 500 µM", "value": 0.145}, {"measurement": "relative viability", "setting": "Calu-6; first compound 5 µM", "value": 0.802}, {"measurement": "relative viability", "setting": "Calu-6; first compound 15.81 µM", "value": 0.622}, {"measurement": "relative viability", "setting": "Calu-6; first compound 50 µM", "value": 0.741}, {"measurement": "relative viability", "setting": "Calu-6; first compound 158.11 µM", "value": 0.556}, {"measurement": "relative viability", "setting": "Calu-6; first compound 500 µM", "value": 0.346}, {"measurement": "relative viability", "setting": "NCI-H1703; first compound 5 µM", "value": 0.582}, {"measurement": "relative viability", "setting": "NCI-H1703; first compound 15.81 µM", "value": 0.487}, {"measurement": "relative viability", "setting": "NCI-H1703; first compound 50 µM", "value": 0.531}, {"measurement": "relative viability", "setting": "NCI-H1703; first compound 158.11 µM", "value": 0.31}, {"measurement": "relative viability", "setting": "NCI-H1703; first compound 500 µM", "value": 0.284}, {"measurement": "relative viability", "setting": "EBC-1; first compound 5 µM", "value": 0.179}, {"measurement": "relative viability", "setting": "EBC-1; first compound 15.81 µM", "value": 0.198}, {"measurement": "relative viability", "setting": "EBC-1; first compound 50 µM", "value": 0.197}, {"measurement": "relative viability", "setting": "EBC-1; first compound 158.11 µM", "value": 0.133}, {"measurement": "relative viability", "setting": "EBC-1; first compound 500 µM", "value": 0.167}, {"measurement": "relative viability", "setting": "IA-LM; first compound 5 µM", "value": 0.584}, {"measurement": "relative viability", "setting": "IA-LM; first compound 15.81 µM", "value": 0.549}, {"measurement": "relative viability", "setting": "IA-LM; first compound 50 µM", "value": 0.621}, {"measurement": "relative viability", "setting": "IA-LM; first compound 158.11 µM", "value": 0.454}, {"measurement": "relative viability", "setting": "IA-LM; first compound 500 µM", "value": 0.22}]}, {"smiles": "O=c1[nH]c2ccccc2n1C1CCN(CCCC(c2ccc(F)cc2)c2ccc(F)cc2)CC1", "note": "[Pimozide] + CC1(C)CCC(c2ccc(Cl)cc2)=C(CN2CCN(c3ccc(C(=O)NS(=O)(=O)c4ccc(N[C@H](CCN5CCOCC5)CSc5ccccc5)c(S(=O)(=O)C(F)(F)F)c4)cc3)CC2)C1 [Navitoclax] (partner 0.5 µM)", "values": [{"measurement": "relative viability", "setting": "NCI-H1299; first compound 0.08 µM", "value": 1.04}, {"measurement": "relative viability", "setting": "NCI-H1299; first compound 0.253 µM", "value": 0.969}, {"measurement": "relative viability", "setting": "NCI-H1299; first compound 0.8 µM", "value": 0.99}, {"measurement": "relative viability", "setting": "NCI-H1299; first compound 2.53 µM", "value": 1.03}, {"measurement": "relative viability", "setting": "NCI-H1299; first compound 8 µM", "value": 1.03}, {"measurement": "relative viability", "setting": "A549; first compound 0.08 µM", "value": 1.28}, {"measurement": "relative viability", "setting": "A549; first compound 0.253 µM", "value": 1.31}, {"measurement": "relative viability", "setting": "A549; first compound 0.8 µM", "value": 1.15}, {"measurement": "relative viability", "setting": "A549; first compound 2.53 µM", "value": 1.14}, {"measurement": "relative viability", "setting": "A549; first compound 8 µM", "value": 0.987}, {"measurement": "relative viability", "setting": "Calu-6; first compound 0.08 µM", "value": 0.785}, {"measurement": "relative viability", "setting": "Calu-6; first compound 0.253 µM", "value": 0.805}, {"measurement": "relative viability", "setting": "Calu-6; first compound 0.8 µM", "value": 0.844}, {"measurement": "relative viability", "setting": "Calu-6; first compound 2.53 µM", "value": 0.704}, {"measurement": "relative viability", "setting": "Calu-6; first compound 8 µM", "value": 0.774}, {"measurement": "relative viability", "setting": "NCI-H1703; first compound 0.08 µM", "value": 1.05}, {"measurement": "relative viability", "setting": "NCI-H1703; first compound 0.253 µM", "value": 0.99}, {"measurement": "relative viability", "setting": "NCI-H1703; first compound 0.8 µM", "value": 0.982}, {"measurement": "relative viability", "setting": "NCI-H1703; first compound 2.53 µM", "value": 0.801}, {"measurement": "relative viability", "setting": "NCI-H1703; first compound 8 µM", "value": 0.782}, {"measurement": "relative viability", "setting": "EBC-1; first compound 0.08 µM", "value": 0.356}, {"measurement": "relative viability", "setting": "EBC-1; first compound 0.253 µM", "value": 0.493}, {"measurement": "relative viability", "setting": "EBC-1; first compound 0.8 µM", "value": 0.367}, {"measurement": "relative viability", "setting": "EBC-1; first compound 2.53 µM", "value": 0.309}, {"measurement": "relative viability", "setting": "EBC-1; first compound 8 µM", "value": 0.211}, {"measurement": "relative viability", "setting": "IA-LM; first compound 0.08 µM", "value": 0.686}, {"measurement": "relative viability", "setting": "IA-LM; first compound 0.253 µM", "value": 0.723}, {"measurement": "relative viability", "setting": "IA-LM; first compound 0.8 µM", "value": 0.923}, {"measurement": "relative viability", "setting": "IA-LM; first compound 2.53 µM", "value": 0.746}, {"measurement": "relative viability", "setting": "IA-LM; first compound 8 µM", "value": 0.728}]}, {"smiles": "O=c1[nH]c2ccccc2n1C1CCN(CCCC(c2ccc(F)cc2)c2ccc(F)cc2)CC1", "note": "[Pimozide] + CC(C)C[C@H](NC(=O)[C@H](Cc1ccccc1)NC(=O)c1cnccn1)B(O)O [Bortezomib] (partner 0.002 µM)", "values": [{"measurement": "relative viability", "setting": "NCI-H1563; first compound 0.08 µM", "value": 0.848}, {"measurement": "relative viability", "setting": "NCI-H1563; first compound 0.253 µM", "value": 0.936}, {"measurement": "relative viability", "setting": "NCI-H1563; first compound 0.8 µM", "value": 0.855}, {"measurement": "relative viability", "setting": "NCI-H1563; first compound 2.53 µM", "value": 0.67}, {"measurement": "relative viability", "setting": "NCI-H1563; first compound 8 µM", "value": 0.583}, {"measurement": "relative viability", "setting": "NCI-H1299; first compound 0.08 µM", "value": 0.984}, {"measurement": "relative viability", "setting": "NCI-H1299; first compound 0.253 µM", "value": 1.05}, {"measurement": "relative viability", "setting": "NCI-H1299; first compound 0.8 µM", "value": 0.975}, {"measurement": "relative viability", "setting": "NCI-H1299; first compound 2.53 µM", "value": 1.01}, {"measurement": "relative viability", "setting": "NCI-H1299; first compound 8 µM", "value": 0.976}, {"measurement": "relative viability", "setting": "Calu-6; first compound 0.08 µM", "value": 1}, {"measurement": "relative viability", "setting": "Calu-6; first compound 0.253 µM", "value": 1.15}, {"measurement": "relative viability", "setting": "Calu-6; first compound 0.8 µM", "value": 0.969}, {"measurement": "relative viability", "setting": "Calu-6; first compound 2.53 µM", "value": 1.04}, {"measurement": "relative viability", "setting": "Calu-6; first compound 8 µM", "value": 0.856}, {"measurement": "relative viability", "setting": "NCI-H1703; first compound 0.08 µM", "value": 0.206}, {"measurement": "relative viability", "setting": "NCI-H1703; first compound 0.253 µM", "value": 0.337}, {"measurement": "relative viability", "setting": "NCI-H1703; first compound 0.8 µM", "value": 0.379}, {"measurement": "relative viability", "setting": "NCI-H1703; first compound 2.53 µM", "value": 0.227}, {"measurement": "relative viability", "setting": "NCI-H1703; first compound 8 µM", "value": 0.306}, {"measurement": "relative viability", "setting": "EBC-1; first compound 0.08 µM", "value": 0.517}, {"measurement": "relative viability", "setting": "EBC-1; first compound 0.253 µM", "value": 0.557}, {"measurement": "relative viability", "setting": "EBC-1; first compound 0.8 µM", "value": 0.532}, {"measurement": "relative viability", "setting": "EBC-1; first compound 2.53 µM", "value": 0.439}, {"measurement": "relative viability", "setting": "EBC-1; first compound 8 µM", "value": 0.381}, {"measurement": "relative viability", "setting": "IA-LM; first compound 0.08 µM", "value": 0.789}, {"measurement": "relative viability", "setting": "IA-LM; first compound 0.253 µM", "value": 0.792}, {"measurement": "relative viability", "setting": "IA-LM; first compound 0.8 µM", "value": 0.856}, {"measurement": "relative viability", "setting": "IA-LM; first compound 2.53 µM", "value": 0.901}, {"measurement": "relative viability", "setting": "IA-LM; first compound 8 µM", "value": 0.692}]}]}
